The structures appear in SMILES notation. A value given as a limit tells only on which side of the number the result lay.

One experiment concerns the target T1, TORC1 (Homo sapiens, UniProt P42345+P62942).
T1 construct: endogenous in cells; host or cells: PC3 cells
Nature of the experiment: IC50 in PC3 cells, TORC1. It is filed as cell-based.

Another experiment addresses T2, TORC2 (Homo sapiens, UniProt P42345+P62942).
T2 construct: endogenous in cells; host or cells: PC3 cells
Nature of the experiment: IC50 in PC3 cells, TORC2. It is filed as cell-based.

The test system of another experiment is 6-OHDA injected mice. Put plainly: Anti-TH immunohistochemistry, 6-OHDA-induced striatal denervation. It is filed as in vivo, mouse. How it is done:
Immunohistochemistry analysis using anti-tyrosine hydroxylase (TH) antibody was performed in mouse midbrain sections to quantify 6-OHDA-induced striatal denervation in mice injected with 6-OHDA and non-injected (control) sides of the brain. […] In contrast, both the 6-OHDA/rapamycin-treated and the 6-OHDA/Formula II-treated sides of the brain show increased staining with the anti-TH antibody, as indicated by the dark shading in those figures. FIG. 3B presents the mean and standard error of the mean (SEM) of the integrated density of anti-TH antibody staining in the striatum, as well as statistical analysis of the results for the groups of mice.

Usually IC50 stands for the concentration that gives 50% inhibition. Low readings indicate inhibition by little substance, high ones a need for much substance. In the case of `CO[C@H]1C[C@@H]2CC[C@@H](C)[C@@](O)(C2)C(=O)C(=O)N2CCCC[C@H]2C(=O)O[C@H]([C@H](C)C[C@H]2C[C@H]3C[C@@H]2C[C@@H]3O)CC(=O)[C@H](C)/C=C(\C)[C@@H](O)[C@@H](OC)C(=O)[C@H](C)C[C@H](C)/C=C/C=C/C=C/1C` [Formula II, C37-[(1R,2S,4R,5S)-5-hyhroxybicyclo[2.2.1]heptane] rapamycin], the IC50 was determined as 0.099 nM on TORC1 and 5 nM against TORC2. In addition, on TORC1 (from IC50 values), the “TORC1/TORC2 Selectivity” value was found to be 50x. In the experiment on 6-OHDA injected mice (6-OHDA injected mice, FIG. 3A), the “6-OHDA-induced striatal denervation (anti-TH staining) compared with rapamycin” value is “decreased 6-OHDA-induced denervation as compared to rapamycin”. In the experiment with 6-OHDA injected mice (6-OHDA injected mice, FIG. 3A), the “6-OHDA-induced striatal denervation (anti-TH staining) compared with vehicle control” value is “decreased 6-OHDA-induced denervation as compared to vehicle control”. In the experiment on 6-OHDA injected mice (one-way ANOVA, FIG. 3B), the “integrated density of anti-TH staining in striatum, p versus vehicle control” value is recorded as < 0.001.
